Experimental data as given in ChEMBL document CHEMBL1137889, “Synthesis and antienteroviral activity of a series of novel, oxime ether-containing pyridyl imidazolidinones” (Bioorg Med Chem Lett, 2004).

Legend:
Enterovirus A71 [1] = assay: inhibition concentration required against human enterovirus 71 strain 4643 was determined by plaque reduction assay; type: functional, organism-based; conditions: Enterovirus A
Echovirus [2] = assay: inhibition concentration required against echovirus 9 was determined by plaque reduction assay; type: functional, organism-based
Coxsackievirus [3] = assay: inhibition concentration required against coxsackievirus B3 was determined by plaque reduction assay; type: functional, organism-based
Enterovirus A71 [4] = assay: inhibition concentration required against human enterovirus 71 (BrCr) genotype A was determined by plaque reduction assay; type: functional, organism-based
Coxsackievirus [5] = assay: inhibition concentration required against coxsackievirus B5 was determined by plaque reduction assay; type: functional, organism-based
Coxsackievirus [6] = assay: inhibition concentration required against coxsackievirus A9 was determined by plaque reduction assay; type: functional, organism-based
Coxsackievirus [7] = assay: inhibition concentration required against coxsackievirus A24 was determined by plaque reduction assay; type: functional, organism-based
Coxsackievirus [8] = assay: inhibition concentration required against coxsackievirus B2 was determined by plaque reduction assay; type: functional, organism-based
Coxsackievirus [9] = assay: inhibition concentration required against coxsackievirus B1 was determined by plaque reduction assay; type: functional, organism-based
Coxsackievirus [10] = assay: inhibition concentration required against coxsackievirus A16 was determined by plaque reduction assay; type: functional, organism-based
Echovirus [11] = assay: inhibition concentration required against echovirus 29 was determined by plaque reduction assay; type: functional, organism-based
Enterovirus A71 [12] = assay: inhibition concentration required against human enterovirus 71 (2086) genotype C was determined by plaque reduction assay; type: functional, organism-based; conditions: Enterovirus A
Enterovirus D68 = assay: inhibition concentration required against human enterovirus 68 was determined by plaque reduction assay; conditions: Enterovirus D
Coxsackievirus [13] = assay: inhibition concentration required against coxsackievirus B4 was determined by plaque reduction assay; type: functional, organism-based
Rhabdomyosarcoma cell = assay: Concentration required for 50% cytotoxicity against human rhabdomyosarcoma cell lines; type: functional
Enterovirus A71 [14] = assay: inhibition concentration required against human enterovirus 71 (1743) genotype B was determined by plaque reduction assay; type: functional, organism-based; conditions: Enterovirus A
Coxsackievirus [15] = assay: inhibition concentration required against coxsackievirus B6 was determined by plaque reduction assay; type: functional, organism-based
Enterovirus A71 [16] = assay: inhibition concentration required against human enterovirus 71 (2231) genotype C was determined by plaque reduction assay; type: functional, organism-based; conditions: Enterovirus A
Coxsackievirus [17] = assay: inhibition concentration required against coxsackievirus A10 was determined by plaque reduction assay; type: functional, organism-based

IC50 (Enterovirus A71 [1]): 30 nM
IC50 (Echovirus [2]): 300 nM
IC50 (Coxsackievirus [3]): > 25000 nM
IC50 (Enterovirus A71 [4]): 50 nM
IC50 (Coxsackievirus [5]): 4180 nM
IC50 (Coxsackievirus [6]): 40 nM
IC50 (Coxsackievirus [7]): 140 nM
IC50 (Coxsackievirus [8]): > 25000 nM
IC50 (Coxsackievirus [9]): > 25000 nM
IC50 (Coxsackievirus [10]): > 25000 nM
IC50 (Echovirus [11]): 30 nM
IC50 (Enterovirus A71 [12]): 70 nM
IC50 (Enterovirus D68): > 25000 nM
IC50 (Coxsackievirus [13]): 3140 nM
IC50 (Enterovirus A71 [14]): 90 nM
IC50 (Coxsackievirus [15]): > 25000 nM
IC50 (Enterovirus A71 [16]): 80 nM
IC50 (Coxsackievirus [17]): 8610 nM
Structure (SMILES): O=C1N(CCCCCOc2ccc(-c3ccc(Cl)cc3)cc2)CCN1c1ccncc1
CC50 (Rhabdomyosarcoma cell): > 12500 nM
